Results from publication PMC9505670, “The Effect of Short-Chain Fatty Acids on Growth of Cryptosporidium parvum In Vitro” (Microorganisms, 2022).
Values joined by “and” are separate entries in the source; they are usually repeats but may differ in a detail not shown here. Equal values may be shown once. Read-outs that look alike come from different tables or passages of the source.

Experiments:
[1] = tested on: T. gondii; design: method as in PMID 17626366; conditions: cited from earlier work; for IC50: cell monolayers infected and then treated
[2] = tested on: E. invadens; design: method as in PMID 15659070; conditions: incubated individually; cited from earlier work
[3] = tested on: C. parvum sporozoites; test: SCFA treatment of live sporozoites before inoculation onto HCT-8 cells; type: cell-based, Cryptosporidium parvum; conditions: for inhibition of sporozoites: 45 min incubation with sporozoites prior to infection of host cell monolayers; for EC50: sporozoites incubated 45 min with SCFA, washed, then 48 h development on HCT-8 cells, read-out: EC50 for Sporozoite Stages
Experimental: Sporozoites were prepared according to You et al., 1998 [15]. Briefly, after excystation, the C. parvum oocysts and sporozoite mixture was filtered through a […] filter using a syringe and centrifuged, washed and counted. Isolated sporozoites were incubated with different SCFAs for 45 min, then washed several times to remove SCFAs before plating on cell monolayers. Sporozoites were then inoculated onto HCT-8 cells and incubated for 3 h. Monolayers were then washed, media was replaced and parasites were allowed to develop for 48 h, as described in the culture assay above. Cells were fixed and labeled and parasitic stages were quantitated as described above.

[4] = tested on: C. parvum; test: C. parvum in vitro culture assay, intracellular stages in infected HCT-8 cells; type: cell-based, Cryptosporidium parvum IOWA isolate
Experimental: Growth of C. parvum in cell culture was performed as described previously. Briefly, purified C. parvum IOWA isolate oocysts were washed with phosphate-buffered saline (PBS, pH 7.4) to remove the storage buffer (2.5% w/v aqueous potassium dichromate) and resuspended in RPMI 1640 media supplemented with 0.75% sodium taurocholate and incubated for 30 min at 37 °C. The excystation mixture containing oocysts, oocyst shells and free sporozoites was diluted with RPMI 1640 with 10% fetal bovine serum (FBS). Approximately 1 × 10^5 oocysts and sporozoites were dispensed per well in 24-well plates containing confluent HCT-8 cells. Host cells inoculated with the parasite mixture were incubated for 3 h and subsequently washed with PBS to remove free parasites (those that had not invaded host cells). PBS was replaced with fresh RPMI 1640 with 10% FBS with or without test compounds and the cultures were incubated for 48 h. In addition, RPMI 1640 with 10% FBS supplemented with DMSO (same concentration used with test compounds) was evaluated to determine the effect of inhibition or toxicity on cultures. Culture wells were washed with PBS, and then PBS was replaced by Bouin’s solution. After fixation of cultures, the Bouin solution was removed and decolorized with 70% ethanol, followed by 5 washes with PBS. Culture wells were labeled with an anti-C. parvum fluorescein-labeled monoclonal antibody (C3C3-FITC) and parasites were enumerated via quantitative fluorescent microscopy at 400× magnification using an Olympus IX73 microscope (Waltham, MA, USA). Twenty-four sequential, non-overlapping fields per well were captured as digital images, constituting a representative subsample of the entire well. The parasites were quantified using OpenCFU (https://sourceforge.net/projects/opencfu/, accessed on 4 October 2014) software based on the size of the fluorescing parasites and the parasite-specific fluorescent signal. Data were obtained from four well replicates, and each experiment was repeated at least twice. Dose–effect curves and the median effective concentration (EC50) of each compound alone or in combination was determined using CompuSyn (ComboSyn, Inc., Paramus, NJ, USA, ver. 2.1 for Microsoft Windows) computer software. The EC50 was defined as the concentration required for reducing the number of parasites by 50% compared with the untreated control. […]

[5] = tested on: HCT-8 cells; test: Compound toxicity for host cell cultures (CellTiter 96 tetrazolium assay); type: cell-based, human
Experimental: (§1) Test compound toxicity for HCT-8 cell cultures was assessed using the CellTiter 96 Non-Radioactive Cell Proliferation/Cytotoxicity assay as recommended by the manufacturer (Promega Corporation, Madison, WI, USA).

[6] = tested on: Cryptosporidium; design: method as in PMID 8917558; conditions: previously reported; cited from earlier work
[7] = Compound toxicity for host cell cultures (CellTiter 96 tetrazolium assay); type: cell-based, human; conditions: human; HDAC inhibitors; 48 h; read-out: Cytotoxicity Concentration (CC50) for HCT-8 Host Cells
Experimental: as §1

[8] = tested on: apoptosis in HCT-8 cells; test: Apoptosis assay (Caspase-Glo 3/7); type: cell-based, human; conditions: 24 h
Experimental: In vitro assays were performed as described above. Briefly, HCT-8 cells were infected with C. parvum and/or treated with 1 mM butyrate for 24 h, after which the cells were analyzed for percent apoptosis. Control wells (uninfected, untreated) were compared with treated wells and infected wells. Apoptosis in HCT-8 cell cultures was measured using a commercially available assay (Promega Corporation, Madison, WI, USA). Caspase-Glo3/7 reagent was added directly to the assay wells.

[9] = tested on: autophagy in HCT-8 cells; test: Autophagy assay (autophagosome detection reagent); type: cell-based, human; conditions: 24 h
Experimental: In vitro assays were performed as described above. Briefly, HCT-8 cells were infected with C. parvum and/or treated with 1 mM butyrate for 24 h, after which the cells were analyzed for […]. Control wells (uninfected, untreated) were compared with treated wells and infected wells. An autophagy assay was used following the recommendation of the manufacturer (Sigma-Aldrich, St. Louis, MO, USA). The medium was removed from the wells and 100 µL of the proprietary autophagosome detection reagent was added directly to each well. The plate was then incubated for 45 min at 37 °C and 5% CO2. The detection reagent was then removed, and each well was washed 3 times with the provided wash buffer before measuring fluorescence (λex = 360/λem = 520 nm) with a microplate reader. The intensity of the fluorescence correlates directly with the amount of autophagy observed.

[10] = tested on: CpHDAC3; conditions: recombinant protein; cited from earlier work
[11] = tested on: cytokine production in HCT-8 cells; test: Cytokine production, Luminex 48-plex, HCT-8 supernatants; type: cell-based, human; conditions: for majority of cytokines in the 48-plex assay (including IL-6 and TNF-α): 48 h treatment, alone or in combination with C. parvum infection
Experimental: For the cytokine assay, the in vitro infection assay was performed as described above. Supernatants from 24-well plates were collected and stored at –80 °C. Luminex multiplex assays were completed by Eve Technologies using the Human Cytokine discovery Array 48-plex Panel (Calgary, AB, Canada).

[12] = tested on: T. gondii; design: method as in PMID 34339265; conditions: treatment of mice; cited from earlier work
[13] = tested on: C. parvum; design: method as in PMID 24273180; conditions: cited from earlier work
[14] = tested on: C. parvum; design: method as in PMID 24273180; conditions: cited from earlier work; remark: listed apart in the source
[15] = HCT-8 cells infected with C. parvum, 48 h treatment, read-out: EC50 for Intracellular Stages
[16] = Cryptosporidium parvum, HCT-8, 48 h, HCT-8 cells infected with C. parvum, 48 h treatment, read-out: EC50 for Intracellular Stages
[17] = C. parvum infected then 1 mM butyrate, 48 h, compared with butyrate alone or infection alone
[18] = HDAC inhibitors, infected HCT-8 cells, 48 h, read-out: EC50 of Intracellular Stages

In the case of `O=C(O)CCCc1ccccc1` [4-phenylbuyrate], the “inhibition of T. gondii in vitro” value [1] is listed as “inhibit”.

In the case of `CC(=O)O` [Acetate], the “concentration range inhibiting encystment” value [2] is listed as 6 to 22 mM, the inhibition of sporozoites [3] is listed as “no inhibition” and the EC50 [3] is listed as over 100000 µM. It also gave an EC50 [4, 15] of 4000 µM and a CC50 [5] of over 200000 µM.

For `CCC(=O)CCCCC[C@@H]1NC(=O)[C@H]2CCCCN2C(=O)[C@H]([C@@H](C)CC)NC(=O)[C@H](Cc2cn(OC)c3ccccc23)NC1=O` [Apicidin], the “anti-cryptosporidial activity at concentration” value [6] is listed as 30 ng/mL, the EC50 ([4]; Cryptosporidium parvum, HCT-8, 48 h, read-out: EC50 of Intracellular Stages, HDAC inhibitors, infected HCT-8 cells, 48 h) is listed as 0.02 µM and the EC50 ([4]; read-out: EC50 of Intracellular Stages, HDAC inhibitors, infected HCT-8 cells, 48 h) is listed as 0.04 µM. It also gave a CC50 at 48 h [7] of 150 µM.

For `CCCC(=O)O` [Butyrate], the “concentration range inhibiting encystment” value [2] is listed as 6 to 22 mM, the apoptosis ([8]; 1.0 mM alone, compared to control, p < 0.05) is listed as “significantly higher percentage of apoptosis” and the apoptosis ([8]; C. parvum infection plus treatment 3 h after infection, 1 mM) is listed as “additional increase in apoptosis”. For the same compound, the inhibition of sporozoites [3] was “inhibited growth”, the EC50 ([3]; Cryptosporidium parvum) was 2000 µM and the autophagy ([9]; 1 mM alone, uninfected cells) was “no difference”. For the same compound, the autophagy ([9]; cells infected with C. parvum and treated, 1 mM) was “significant decrease in autophagy”, the EC50 [4, 16] was 4000 to 10000 µM and the EC50 [4, 15] was 3000 to 8000 µM. The IC50 [1] was 1000 to 5000 µM, the “inhibition of T. gondii in vitro” value [1] was “inhibit” and the “inhibition of CpHDAC3” value [10] was “did not inhibit”. The “majority of cytokines in the 48-plex assay (including IL-6 and TNF-α)” value (“majority of cytokines” for short) [11] was “not significantly altered”, the IL-1α [11, 17] was “significant increase” and the IL-8 [11, 17] was “significant increase”.

For `COc1ccc(Cn2ccc3ccc(C(=O)NO)cc32)cc1` [PCI 34051], the EC50 [4, 18] was 0.001 µM and 0.001 to 0.007 µM, the toxicity ([5]; below 200 nM) was “no toxicity” and the “majority of cytokines” value [11] was “did not increase cytokine expression”. The “majority of cytokines” value ([11]; listed as PCI 34,051) was “not significantly altered”.

For `CCC(=O)O` [Propionate], the “concentration range inhibiting encystment” value [2] is given as 6 to 22 mM, the inhibition of sporozoites [3] is given as “no inhibition” and the EC50 [3] is given as over 100000 µM. For the same compound, the EC50 [4, 15] was 3000 to 4000 µM.

For `CC(/C=C/C(=O)NO)=C\[C@@H](C)C(=O)c1ccc(N(C)C)cc1` [Trichostatin A], the “anti-cryptosporidial activity at concentration” value [6] is listed as 30 ng/mL, the EC50 [4, 18] is listed as 0.02 µM and the CC50 ([5]; HDAC inhibitors, 48 h, read-out: Cytotoxicity Concentration (CC50) for HCT-8 Host Cells) is listed as over 200 µM.

For `CCCC(CCC)C(=O)O` [Valproate, reference compound], the “number of T. gondii cysts in the brains of mice” value [12] is given as “reduce the number of T. gondii cysts”, the inhibition of sporozoites [3] is given as “no inhibition” and the EC50 ([3]; Cryptosporidium parvum) is given as over 100000 µM. For the same compound, the EC50 [4, 16] was 10000 µM, the IC50 [1] was 1000 to 5000 µM and the “inhibition of T. gondii in vitro” value [1] was “inhibit”.

In the case of `O=C(CCCCCCC(=O)Nc1ccccc1)NO` [vorinostat], the “efficacy in a mouse model” value [13] is listed as “efficacy” and the in vitro activity [14] is listed as “in vitro activity”.
